Consider three compounds from patent publication US20220387620A1, “NANOSTRUCTURED DRUG DELIVERY SYSTEM AS A MULTIFUNCTIONAL PLATFORM FOR THERAPY” (priority 2019, published 2022).

The term IC50 denotes the midpoint of a concentration-inhibition curve. High values mean a need for much substance, low ones inhibition by little substance.

The subject of data set [1] is human blood. Description: In vitro hemolytic activity (NCL ITA-1 protocol). The data set is classed as cell-based. The note with it: positive control, 3 h at 37° C. The text has this: The haemolytic behaviour of NLCs formulations was explored following the Nanotechnology Characterization Lab (NCL) protocol for analysis of Haemolytic Properties of Nanoparticles (NCL ITA-1 Version 1.2), with slight modifications. Briefly, fresh human blood was drawn from healthy participants in the Laboratory of Clinical Analysis of the Faculty of Pharmacy of the University of Coimbra, after a written informed consent was obtained from all individuals. The venous blood, collected in heparinised vacutainer tubes, was properly diluted in PBS to final a concentration of 10 mg/mL of total blood haemoglobin, and incubated with the NLCs at eight different concentrations, regarding ATO content for 3 h at 37° C. Aqueous and acetate buffered polysorbate 80 solutions were also tested in 15 and 100 μg/mL. PBS and Triton™ X-100 were used as negative and positive controls, respectively, with additional no-blood controls being used due to possible interference of CUR at 540 nm. Following incubation, cell-free supernatants were obtained and any plasma-free haemoglobin and metabolites were converted into cyanmethaemoglobin (CMH), using Drabkin's reagent. The detection of CMH was conducted at 540 nm and the percentage of haemolysis (%) was calculated taking into account the equation 2.

Data set [2] relates to U-87 MG cells. Description: Resazurin cell viability / cytotoxicity assay. The conditions noted are these: free drug. Format: cell-based, human. How it is done:
Regarding cell viability, U-87 MG cells were cultured in DMEM/F-12 medium, supplemented with 10% (v/v) FBS, 1% (v/v) penicillin-streptomycin solution and sodium bicarbonate. Cells were maintained at 37° C. in a humidified atmosphere containing CO2 (5%). The resazurin assay was used to determine the cytotoxicity of NLCs. Briefly, 2000 cells per well were seeded in a 96 well plate and incubated for 24 h or 72 h after the medium was replaced with increasing concentrations of free drugs or NLCs. Subsequently, the medium was removed and the cell viability determined. For this purpose, 100 μL of 10% (w/v) resazurin solution in DMEM/F 12 was added to the cells and incubated for approximately 2 h, at 37° C. The enzymatic reduction of resazurin to resorufin was analyzed by UV/Vis spectrophotometry at 570 nm and 600 nm. Cell viability was assessed indirectly according to equation 1.

Turning to Triton™ X-100, the hemolysis result in data set [1] is “complete hemolysis”.
With `COc1cc(/C=C/C(=O)CC(=O)/C=C/c2ccc(O)c(OC)c2)ccc1O` [CUR, curcumin], the IC50 is 86 ± 35 µM in data set [2] (Homo sapiens, U-87 MG, 24 h of incubation) and 77 ± 1 µM in data set [2] (Homo sapiens, U-87 MG, 72 h of incubation).
In the case of `CC(C)c1c(C(=O)Nc2ccccc2)c(-c2ccccc2)c(-c2ccc(F)cc2)n1CC[C@@H](O)C[C@@H](O)CC(=O)O` [ATO, atorvastatin calcium], the IC50 in data set [2] (24 h of incubation) came out at 134 ± 27 µM; in data set [2] (72 h of incubation), 25 ± 5 µM.
